Reference: a compilation of properties of binary mixtures (doi:10.1016/j.jct.2022.106952)

Experiment: xn = mol fraction of the nth substance listed
Conditions: 101.3 kPa

CCCC[n+]1ccn(C)c1.F[P-](F)(F)(F)(F)F + CCCCCCCCN1CCCC1=O
x1 = 1
Conditions | speed of sound [m/s]
308.15 K | 1419.8
313.15 K | 1408.2
318.15 K | 1396.8
323.15 K | 1385.6

CCCCCCCCN1CCCC1=O + CCCC[n+]1ccn(C)c1.F[P-](F)(F)(F)(F)F
speed of sound [m/s]
Conditions | 303.15 K | 308.15 K | 313.15 K | 318.15 K | 323.15 K
x2 = 0 | 1433.6 | 1416.3 | 1399.1 | 1382.1 | 1365.2
x2 = 0.0531 | 1430 | 1413.2 | 1396.4 | 1379.8 | 1363.3
x2 = 0.1034 | 1425.4 | 1408.9 | 1392.5 | 1376.3 | 1360.2
x2 = 0.1513 | 1421.4 | 1405.2 | 1389.2 | 1373.3 | –
x2 = 0.2034 | 1417.6 | 1401.8 | 1386.2 | 1370.7 | 1355.3
x2 = 0.3009 | 1412.1 | – | 1382 | 1367.1 | 1352.4
x2 = 0.405 | – | 1393.9 | 1379.6 | 1365.4 | 1351.4
x2 = 0.5042 | – | 1393.1 | 1379.4 | 1365.8 | 1352.3
x2 = 0.5996 | 1407.7 | – | – | 1367.9 | –
x2 = 0.6991 | 1410.4 | 1397.4 | 1384.6 | 1372.1 | 1359.6
x2 = 0.8029 | 1415.4 | 1402.9 | 1390.6 | – | 1366.5
x2 = 0.8451 | – | 1405.7 | – | 1381.7 | 1369.9
x2 = 0.8927 | 1421.5 | 1409.4 | 1397.5 | – | 1374.2
x2 = 0.9513 | 1426.6 | 1414.7 | 1403 | 1391.4 | 1380.1
